These results are taken from patent EP3146981A1, “COVALENTLY ATTACHED AZOBENZENE SWITCHES AND THEIR USES FOR THE OPTICAL CONTROL OF TARGET PROTEINS” (Ludwig-Maximilians-Universität München, priority 2015, dated 2017).

Series [1] relates to SNAP-mGluR2 in hippocampal neurons. Kind of series: Whole cell patch-clamp of hippocampal neurons, excitability. It is filed as cell-based, mice. As to the method:
Dissociated hippocampal neuron cultures were prepared from postnatal P0 or P1 mice on 12 mm glass coverslips as previously described (Levitz et al., 2013). Neurons were transfected with SNAP-mGluR2 (1.5 µg/well) and tdTomato (0.25 µg/well as a transfection marker) using the calcium phosphate method at DIV9. Whole cell patch clamp experiments were performed 3-6 days after transfection (DIV 12-15). Labeling was performed using the same protocol as HEK cells except BGAG was diluted in extracellular recording solution containing (in mM): 138 NaCl, 1.5 KCl, 1.2 MgCl2, 2.5 CaCl2, 10 glucose, 5 HEPES, pH 7.4. Glass pipettes of resistance 4-8 MΩ were filled with an intracellular solution containing (in mM): 140 K-gluconate, 10 NaCl, 5 EGTA, 2 MgCl2, 1 CaCl2, 10 HEPES, 2 MgATP and 0.3 Na2GTP, pH 7.2. Autaptic neurons were voltage clamped at -60 mV and a 2-3 ms voltage step to +20 mV was used to evoke a spike followed (~3-5 ms later) by an EPSC. Stimulation was performed once every 12 s to prevent rundown.
We first expressed SNAP-mGluR2-GFP in dissociated hippocampal neurons and labeled with BG-Alexa-647 to determine if SNAP-BG conjugation could occur efficiently in neuronal cultures, which are considerably denser than HEK 293T cell cultures. […]

For the next series, the system named is SNAP-tag. The series is described as follows: In vitro SNAP-tag labeling, SDS page.
Series [2] in a line: Stability of the labeling solution in aqueous buffer (readout: photoactivation of SNAG-mGluR2). It counts as physicochemical. Conditions: one week following dilution in aqueous buffer at room temperature.
A further series concerns the target wild type mGluR2 (Rattus norvegicus, UniProt P31421). The settings on record: cells expressing wild type mGluR2 (no SNAP tag) incubated with BGAG12.
Where [3] appears, read: reductive (DTT), oxidative (GSSG) or neutral conditions.

Read-outs that look alike come from different tables or passages of the source.

Sequence of wild type mGluR2 (P31421 19-872): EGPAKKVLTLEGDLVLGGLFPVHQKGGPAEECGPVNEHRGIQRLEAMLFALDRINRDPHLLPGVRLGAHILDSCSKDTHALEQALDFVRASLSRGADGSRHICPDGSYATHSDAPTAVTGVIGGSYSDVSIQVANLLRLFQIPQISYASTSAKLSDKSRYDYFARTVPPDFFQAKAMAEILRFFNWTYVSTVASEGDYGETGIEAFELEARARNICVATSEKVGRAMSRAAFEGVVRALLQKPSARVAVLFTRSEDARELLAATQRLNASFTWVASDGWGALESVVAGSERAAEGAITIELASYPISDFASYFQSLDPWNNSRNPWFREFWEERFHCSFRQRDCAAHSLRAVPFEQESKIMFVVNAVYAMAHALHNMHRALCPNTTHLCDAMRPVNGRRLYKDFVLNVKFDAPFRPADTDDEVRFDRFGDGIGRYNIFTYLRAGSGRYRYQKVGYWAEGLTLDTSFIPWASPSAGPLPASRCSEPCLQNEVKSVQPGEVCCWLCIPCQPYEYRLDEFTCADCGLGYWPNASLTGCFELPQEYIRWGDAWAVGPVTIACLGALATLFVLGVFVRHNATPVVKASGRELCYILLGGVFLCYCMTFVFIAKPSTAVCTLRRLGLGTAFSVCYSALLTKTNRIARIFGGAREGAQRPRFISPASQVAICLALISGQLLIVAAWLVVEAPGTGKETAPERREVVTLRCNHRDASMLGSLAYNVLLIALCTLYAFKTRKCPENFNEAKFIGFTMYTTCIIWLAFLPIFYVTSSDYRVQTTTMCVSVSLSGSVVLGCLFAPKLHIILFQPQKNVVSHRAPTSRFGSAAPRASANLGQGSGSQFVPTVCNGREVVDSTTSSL
Method for SNAP-tag: Scale bars represents 50 µM (top) and 10 µM (bottom). • Figure 9: SDS page after in vitro SNAP-tag labeling (New England Biolabs, #P9312S) with BGAG12 and D-MAG. Reductive (dithiothreitol, DTT), oxidative (oxidized glutathione, GSSG) or neutral conditions (no additive) were employed according to the manufacturer's instructions.

With `COCCOCCOCCOCCOCCOCCOCCOCCOCCOCCOCCOCCC(=O)NCC(=O)Nc1ccc(/N=N/c2ccc(NC(=O)CCC[C@@H](C[C@H](N)C(=O)O)C(=O)O)cc2)cc1` [AG12, (2S,4S)-2-Amino-4-(4-oxo-4-((4-((E)-(4-(38-oxo-2,5,8,11,14,17,20,23,26,29,32,35-dodecaoxa-39-azahentetracontan-41-amido)phenyl)diazenyl)phenyl)amino)butyl)-pentanedioic acid], the “photoagonism of SNAP-mGluR2, directionality” value with SNAP-mGluR2 (PCL version where the BG group was omitted) was “same directionality as BGAG12”.

Turning to `Nc1nc(OCc2ccc(CNC(=O)CCC(=O)N3Cc4ccccc4-c4c(nnn4CCOCCOCCOCCOCCOCCOCCOCCOCCOCCOCCOCCOCCC(=O)NCCNc4ccc(/N=N/c5ccc(NC(=O)CCC[C@@H](C[C@H](N)C(=O)O)C(=O)O)cc5)cc4)-c4ccccc43)cc2)c2nc[nH]c2n1` [BGAG12(460), (2S,4S)-2-amino-4-(4-((4-((E)-(4-((1-(8-(4-((4-(((2-amino-9H-purin-6-yl)oxy)methyl)-benzyl)amino)-4-oxobutanoyl)-8,9-dihydro-1H-dibenzo[b,f][1,2,3]triazolo[4,5-d]azo-cin-1-yl)-39-oxo-3,6,9,12,15,18,21,24,27,30,33,36-dodecaoxa-40-azadotetra-contan-42-yl)amino)phenyl)diazenyl)phenyl)amino)-4-oxobutyl)pentanedioic acid], the Relaxation following illumination entry in the series on SNAP-mGluR2 (in the dark after blue light) is “rapidly in the dark”. Moreover, the “photoactivation relative to saturating glutamate” value in the series on SNAP-mGluR2 (labeling with 10 µM, blue light (420-470 nm bandpass), n=18 cells) is recorded as 34.9 ± 4.2%.

On to `Nc1nc(OCc2ccc(CNC(=O)CCc3cn(CCOCCOCCOCCOCCOCCOCCOCCOCCOCCOCCOCCOCCC(=O)NCC(=O)Nc4ccc(/N=N/c5ccc(NC(=O)CCC[C@@H](C[C@H](N)C(=O)O)C(=O)O)cc5)cc4)nn3)cc2)c2nc[nH]c2n1` [BGAG12, (2S,4S)-2-Amino-4-(4-((4-((E)-(4-(1-(4-(3-((4-(((2-amino-9H-purin-6-yl)oxy)methyl)benzyl)amino)-3-oxopropyl)-1H-1,2,3-triazol-1-yl)-39-oxo-3,6,9,12,15,18,21,24,27,30,33,36-dodecaoxa-40-azadotetracontan-42-amido)phenyl)diazenyl)phenyl)amino)-4-oxobutyl)pentanedioic acid], for which the membrane hyperpolarization in series [1] (illumination at 380 nm, reversed at 500 nm) is 2-8 mV. In addition, the “effect of light-induced hyperpolarization on firing” value in series [1] (neurons at depolarized potentials that induced firing) was “sufficient to inhibit the action potentials”. The “reaction with SNAP-tag” value in the series on SNAP-tag (setting [3]) is “reacts with SNAP-tag under each condition”. The photocurrents result with SNAP-mGluR2 (100 nM labeling for 45 minutes) is “photocurrents were still observed”; with SNAP-mGluR2 (overnight labeling at 100 nM, versus 45 minutes) it was “increased”. For the same molecule, the “Light responses relative to the responses to saturating glutamate” value in the series with SNAP-mGluR2 (10 µM for 45 minutes at 37 °C, washed, 380 nm, n=10 cells) is 59.3 ± 2.8%. Moreover, in the series with SNAP-mGluR2 (45 minute incubation), the “concentration showing optimal labeling” value is not below 1 µM. The “lowest concentration at which photocurrents were observed” value in the series with SNAP-mGluR2 (overnight labeling) is listed as 10 nM. In addition, the “efficacy of optical activation on reuse of the labeling solution” value in series [2] is reported as “without a decline in efficacy of optical activation”. In addition, the light responses entry at wild type mGluR2 is “no light responses”.

With “D-Maleimide-Azobenzene Glutamate [D-MAG]”, the “reaction with SNAP-tag” value was “reacts only under oxidative and neutral conditions” in the series with SNAP-tag (setting [3]); “unreactive towards the SNAP-tag under reductive conditions” in the series on SNAP-tag (reductive conditions (DTT)).
